In ChEMBL document CHEMBL5335854, “Genomic and Metabolomic Analyses of Nocardiopsis maritima YSL2 as the Mycorrhizosphere Bacterium of Suaeda maritima (L.) Dumort” (2024):
≈ marks a conversion by molar mass, not a printed value.

What was measured:
Type in all cases: functional
Bacillus subtilis = assay: Antibacterial activity against Bacillus subtilis KCCM 11316 assessed as inhibition of bacterial growth incubated for 24 hrs by broth dilution method
[1] = tested on: Staphylococcus epidermidis; assay: Antibacterial activity against Staphylococcus epidermidis KCCM 35494 assessed as inhibition of bacterial growth incubated for 24 hrs by broth dilution method
Escherichia coli = assay: Antibacterial activity against Escherichia coli KCCM 11234 assessed as inhibition of bacterial growth incubated for 24 hrs by broth dilution method
Pseudomonas fluorescens = assay: Antibacterial activity against Pseudomonas fluorescens KCCM 11362 assessed as inhibition of bacterial growth incubated for 24 hrs by broth dilution method

| SMILES | MIC (Bacillus subtilis) | MIC [1] | MIC (Escherichia coli) | MIC (Pseudomonas fluorescens) |
| --- | --- | --- | --- | --- |
| CC[C@@H](C)[C@H]1NC(=O)[C@H](Cc2ccccc2)NC(=O)[C@@H](CCCCN)NC(=O)[C@H](Cc2ccc(O)cc2)NC(=O)[C@H]([C@@H](C)CC)NC(=O)[C@@H](CC(C)C)NC1=O | > 128 µg/mL | 4 µg/mL (≈ 5.14 µM) | 16 µg/mL (≈ 20.6 µM) | 16 µg/mL (≈ 20.6 µM) |
| CC[C@H](C)[C@@H]1NC(=O)[C@@H](CC(C)C)NC(=O)[C@@H](C(C)C)NC(=O)[C@H](Cc2ccccc2)NC(=O)[C@@H](CCCCN)NC(=O)[C@H](Cc2ccc(O)cc2)NC1=O | > 128 µg/mL | 8 µg/mL (≈ 10.5 µM) | 16 µg/mL (≈ 20.9 µM) | 32 µg/mL (≈ 41.9 µM) |
| NC[C@H]1O[C@H](O[C@H]2[C@H](O)[C@@H](O[C@H]3O[C@H](CO)[C@@H](O)[C@H](N)[C@H]3O)[C@H](N)C[C@@H]2N)[C@H](O)[C@@H](O)[C@@H]1O [KANAMYCIN] | 2 µg/mL (≈ 4.13 µM) | 0.5 µg/mL (≈ 1.03 µM) | 1 µg/mL (≈ 2.06 µM) | 1 µg/mL (≈ 2.06 µM) |
